Data on three compounds can be found in article PMC6272295, “In Vitro Neuroprotective Activities of Compounds from Angelica shikokiana Makino” (Molecules, 2015).

Data set [1] addresses T1, AChE from Electrophorus electricus (Electrophorus electricus, UniProt O42275).
T1 construct: purchased Sigma (St. Louis, MO, USA)
In words: biochemical. Particulars: for IC50: Ellman's method, read-out: IC50 in the AChEI assay. The protocol: AChEI activity was measured using Ellman’s method. AChE hydrolyzes the substrate ACTI into acetate and thiocholine. In a neutral and alkaline medium; thiocholine reacts with DTNB to give yellow colored 2-nitro-5-thiobenzoate, which can be detected spectrophotometrically at 405 nm. Briefly, in a 96-well plate, 25 µL of 15 mM ACTI, 125 µL of 3 mM DTNB in buffer B (50 mM Tris HCl, pH = 8, 0.1 M NaCl, 0.02 M MgCl2·6H2O), 50 µL of buffer A (50 mM Tris-HCl, PH 8, 0.1% BSA) and 25 µL of tested sample (dissolved in 25% DMSO) were mixed, and the absorbance was measured using a microplate reader (Biotek, Winooski, VT, USA) at 405 nm every 16 s ten times. Then, 25 µL of AChE (0.25 U/mL in buffer A) was added and the absorbance was measured ten times every 16 s. A solution of 25% DMSO was used as a negative control. Absorbance was plotted against time and enzyme activity was calculated from the slope of the line so obtained and expressed as a percentage compared to an assay using a buffer without any inhibitor. Fractions were tested at 400 µg/mL. To avoid any increase in absorbance due to the color of the compounds or spontaneous hydrolysis of the substrate, the absorbance before addition of the enzyme was subtracted from the absorbance after adding the enzyme.
(§1) IC50 values of isolated compounds in AChEI and scavenging of hydroxyl radical assays were calculated using Probit Analysis (SPSS Version 16.0 for Windows, SPSS Inc., Chicago, IL, USA) for five different concentrations in three independent experiments. Cell viability was expressed as a percentage of MTT reduction, assuming that the viability of cells treated with 1% DMSO as a negative control was 100%. Figures were built in Microsoft Excel 2010. All values are the mean ± SD of three independent experiments. Data were analyzed for statistical significance using one-way ANOVA, followed by Dunnet’s test as a post-hoc test with GraphPad Prism 5.0 software for Windows (Inc., San Diego, CA, USA).
In general terms: DTNB colorimetry detects thiols as they appear.

The test system of data set [2] is neuro-2A cells. In words: Protection against H2O2-induced neurotoxicity (MTT). Type of data set: cell-based, Mouse. The settings on record: for neuroprotection against H2O2-induced neurotoxicity (in words): 6.25-100 µM, H2O2 150 µM; for Protection against H2O2: summary Table 4. On the procedure: (§2) Neuro-2A cell line was maintained in Eagle’s Minimum Essential medium supplemented with 10% fetal bovine serum, 1% of 100× antibiotic—antimitotic agents (containing penicillin and streptomycin) in a humid atmosphere of 5% (v/v) CO2 and 95% (v/v) air at 37 °C. Neuro-2A cells were plated in 96-well cell culture plates at a density of 3 × 10^4 cells/well for H2O2 and intracellular ROS assays and 2.5 × 10^3 cells/well for the Aβ25-35-assay.
(§3) Cell viability was determined by MTT reduction assay. Briefly, after treatment with isolated compounds, the media was replaced by fresh one after washing the cells with 100 µL PBS and 20 µL of MTT (5 mg/mL) was added to each well. After 4 h incubation at 37 °C, the state of cells was checked under microscope to confirm either cytotoxicity in H2O2 and Aβ25-35 wells or protection in positive controls and isolated compounds ones. The supernatants were aspirated carefully, and 150 µL of DMSO was added to each well to dissolve the dark blue formazan crystals. The absorbance was measured using a microplate reader at 570 nm.
H2O2 interacts with metals in the medium, producing highly cytotoxic hydroxyl radicals that induce neurotoxicity. So, active compounds are those that can scavenge free radicals and increase the cell viability. This assay was performed as previously described with slight modifications. Briefly, the concentration of H2O2 that decreased cell viability to about 50% was determined as follows: cells were cultured in a 96-well plate and after 24 h were further incubated with different concentrations of H2O2 (50, 100, 150, 200 µM) freshly prepared from 30% stock solution. After 24 h, cell viability was determined using the MTT reduction method. H2O2 at a concentration of 150 µM had the desired cytotoxicity and was used for the next step.

Data set [3] can be described thus: Scavenging of hydroxyl radical, 2-deoxyribose degradation assay. As to Hydroxyl Radical Scavenging (grade): key: +: Weak activity; ++: Strong activity. The protocol: The inhibitory effect of bioactive compounds on deoxyribose degradation was determined by measuring the competition between deoxyribose and bioactive compounds for the hydroxyl radicals (^.OH) generated from the Fe^3+/ascorbate/EDTA/H2O2 system (referred to non-site-specific assay; the major activity measured is ^.OH scavenging) or an Fe^3+/ascorbate/H2O2 system (referred to as a site-specific assay; major activity measured is metal chelation). Both assays depend on the formation of a highly reactive hydroxyl radical, OH, by the interaction of iron ions with H2O2 through Fenton’s reaction. […] This assay was performed as previously described. Different concentrations of tested compounds were dissolved in 400 µL phosphate buffer (0.2 M, pH 7.4). Then, 50 µL of deoxyribose (60 mM), 50 µL of Na2EDTA (2 mM), 50 µL of FeCl3 (3.2 mM), 50 µL of H2O2 (60 mM) and 50 µL of ascorbic acid (2 mM) were added, and the total volume of the reaction mixture was adjusted to 1 mL with buffer. After water-bath incubation at 50 °C for 25 min, the reaction was terminated by 250 µL of trichloroacetic acid (10%, w/w). […] For site-specific hydroxyl-radical-scavenging activity, the reaction mixture was similar to the above method, except that EDTA was replaced by an equivalent volume of buffer.
as §1, with “Figures were built in Microsoft Excel 2010.” left out

Data set [4] deals with neuro-2A cells. In words: Protection against Aβ25-35-induced neurotoxicity (MTT). As to Protection against Aβ25-35: key: +: Weak activity; ++: Strong activity. Type of data set: cell-based, Mouse. The settings on record: for Protection against Aβ25-35: summary Table 4; for neuroprotection against Aβ25-35 (in words): at the highest concentration (100 µM). On the procedure:
as §2, §3
Similarly, the concentration of Aβ25-35 that decreased cell viability to about 50% was determined. […] So, the cells were incubated with different concentrations of the isolated compounds (6.25, 12.5, 25, 50 and 100 µM) and EGCG as a positive control for 3 h followed by Aβ25-35 treatment for 72 h.

Where [5] appears, read: Fe3+/ascorbate/EDTA/H2O2 system, read-out: IC50 hydroxyl radical scavenging, Non Site-Specific.
The mark [6] stands for this setting: Fe3+/ascorbate/H2O2 system without EDTA, read-out: IC50 hydroxyl radical scavenging, Site-Specific.
The mark [7] stands for this setting: summary Table 4 (values of the non site-specific assay), read-out: Hydroxyl Radical Scavenging/IC50.

Molecules are shown by their SMILES. Read-outs that look alike come from different tables or passages of the source.

T1 sequence (O42275 24-633): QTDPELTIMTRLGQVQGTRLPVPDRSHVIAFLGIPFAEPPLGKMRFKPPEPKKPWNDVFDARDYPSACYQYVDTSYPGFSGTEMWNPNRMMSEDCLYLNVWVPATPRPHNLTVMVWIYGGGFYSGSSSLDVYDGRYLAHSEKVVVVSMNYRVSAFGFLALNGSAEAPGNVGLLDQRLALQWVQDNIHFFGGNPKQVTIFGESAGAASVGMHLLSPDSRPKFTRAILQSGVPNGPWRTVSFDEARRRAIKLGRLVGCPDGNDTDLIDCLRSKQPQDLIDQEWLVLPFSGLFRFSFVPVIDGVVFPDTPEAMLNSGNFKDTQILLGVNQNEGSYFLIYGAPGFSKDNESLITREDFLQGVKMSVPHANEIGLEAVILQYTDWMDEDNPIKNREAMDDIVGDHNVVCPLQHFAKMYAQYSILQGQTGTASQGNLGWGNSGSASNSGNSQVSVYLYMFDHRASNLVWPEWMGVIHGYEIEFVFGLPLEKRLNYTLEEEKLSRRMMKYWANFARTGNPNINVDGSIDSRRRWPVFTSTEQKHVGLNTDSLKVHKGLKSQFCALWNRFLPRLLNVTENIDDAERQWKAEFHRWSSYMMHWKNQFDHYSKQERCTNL

In the case of `CC(=O)OC1c2c(ccc3ccc(=O)oc23)OC(C)(C)C1OC(=O)C(C)(O)C(C)O` (stereo not shown) [Hyuganin E (6), hyuganin E], in data set [1], the IC50 was determined as 286.5 ± 2.1 µM. In the data set with neuro-2A cells [2], the “neuroprotection against H2O2-induced neurotoxicity (in words)” value was “significant (p < 0.05) increase in cell viability at 100 µM” and the “Protection against H2O2” value is listed as “+”. For the same compound, in data set [3] (at 300 µM (maximum solubility in phosphate buffer)), the “% Inhibition of deoxyribose degradation, Non Site-Specific” value was determined as 37.5 ± 3.5%. Also, the “Hydroxyl Radical Scavenging (grade)” value in data set [3] (summary Table 4) is “+”. For the same compound, the “Protection against Aβ25-35” value in the data set with neuro-2A cells [4] is recorded as “++”.
What is called inhibition is the percentage by which the read-out fell short of the control. A high value points to a strong effect. Compound `O=c1c(O)c(-c2ccc(O)cc2)oc2cc(O)cc(O)c12` [Kaempferol (8), kaempferol] yielded an inhibition at 250 µM in data set [1] (at 250 µM) of 30%. In the data set on neuro-2A cells [2], the “neuroprotection against H2O2-induced neurotoxicity (in words)” value is given as “significant (p < 0.05) increase in cell viability at 100 µM” and the “Protection against H2O2” value is listed as “+”. In data set [3] (setting [5]), the IC50 amounted to 720 ± 7.9 µM. Besides, the IC50 in data set [3] (setting [6]) was 901 ± 17.9 µM. Also, in data set [3] (setting [7]), the IC50 was 720 ± 7.9 µM. In the data set with neuro-2A cells [4], the “neuroprotection against Aβ25-35 (in words)” value is recorded as “significant neuroprotection (p < 0.05)” and the “Protection against Aβ25-35” value was “+”.
As to `O=c1c(OC2OC(CO)C(O)C(O)C2O)c(-c2ccc(O)cc2)oc2cc(O)cc(O)c12` (stereo not shown) [Kaempferol-3-O-glucoside (13), kaempferol-3-O-glucoside], the IC50 in data set [1] stood at 80.4 ± 5.1 µM; in data set [3] (setting [5]), 1150 ± 6.7 µM; in data set [3] (setting [6]), 1300 ± 24.3 µM; in data set [3] (setting [7]) it was 1150 ± 6.7 µM. Moreover, in the data set with neuro-2A cells [2], the “neuroprotection against H2O2-induced neurotoxicity (in words)” value was “significant (p < 0.05) increase in cell viability at 100 µM”. Also, the “Protection against H2O2” value in the data set on neuro-2A cells [2] is given as “+”. Moreover, the “neuroprotection against Aβ25-35 (in words)” value in the data set with neuro-2A cells [4] is “significant neuroprotection (p < 0.05)”. Also, the “Protection against Aβ25-35” value with neuro-2A cells [4] is listed as “+”.
